# Patent publication US12331068B2, “Compositions and methods for inhibiting CD73” (Peloton Therapeutics, Inc., priority 2018, dated 2025)
# Key:
# [1] = target: T1, CD73 on U138 human neuroglioma cells (Homo sapiens, UniProt P21589); assay: CD73 Cell-Based Assay (inorganic phosphate from AMP, malachite green); conditions: AMP substrate, 2 hours at 37° C., read-out: CD73 Cell-Based assay IC50
# T1 construct: U138 cells were obtained from ATCC and cultured in DMEM with 10% FBS; host or cells: U138 human neuroglioma cells
# T1 sequence (P21589 27-549): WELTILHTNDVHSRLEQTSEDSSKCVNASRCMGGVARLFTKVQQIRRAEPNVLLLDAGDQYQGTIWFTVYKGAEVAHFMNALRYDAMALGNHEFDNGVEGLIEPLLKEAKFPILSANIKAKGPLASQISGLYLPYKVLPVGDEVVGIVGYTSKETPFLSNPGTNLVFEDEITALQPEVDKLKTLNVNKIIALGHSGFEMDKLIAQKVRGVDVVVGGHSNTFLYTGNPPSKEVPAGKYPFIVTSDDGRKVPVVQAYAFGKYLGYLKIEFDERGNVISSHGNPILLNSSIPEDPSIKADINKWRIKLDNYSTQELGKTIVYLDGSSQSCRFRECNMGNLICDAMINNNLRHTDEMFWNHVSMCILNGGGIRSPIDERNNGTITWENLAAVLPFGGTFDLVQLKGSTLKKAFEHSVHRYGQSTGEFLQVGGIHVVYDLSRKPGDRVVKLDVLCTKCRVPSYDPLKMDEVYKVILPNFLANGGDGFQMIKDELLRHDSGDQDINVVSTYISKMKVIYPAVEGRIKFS
# Protocol: U138 human neuroglioma cells were used in these experiments. U138 cells were obtained from ATCC and cultured in DMEM with 10% FBS. 2500 cells were seeded into 96-well plate with 100 μL of media the day before the experiment. […] After washing, 100 μL of buffer was added to each well, then 100 μL of a mixture of AMP substrate (200 μM) and diluted compound was added to each well. The cells were incubated at 37° C. (with 5% CO2) for 2 hours. 50 μL of supernatant was transferred to a 96-well assay plate and the concentration of inorganic phosphate was determined using malachite green reagent (R&D System; Cat: DY996).
# Human CD73 = target: T2, Human CD73 (Homo sapiens, UniProt P21589); assay: CD73 Enzyme Assay (EnzChek PNP/MESG kinetic readout of AMP hydrolysis); type: biochemical; conditions: 0.25 nM hCD73, 25 μM AMP; read-out: CD73 Enzyme Assay IC50
# T2 construct: purchased R&D Systems; host or cells: CHO cells
# T2 sequence (P21589 27-549): T1 sequence (P21589 27-549)
# Protocol: A compound of the present disclosure (5 μL) was transferred to a 384-well assay plate. The compound was added in a 15 point, 3-fold serial dilution (300 μM to 0.0002 μM) in DMSO. […] The plate was immediately placed in a plate reader (Synergy 2 or Spark 10), and a reading was taken every minute for 10 to 20 minutes in a kinetic run at 360 nm. The linear portion of the curve was used to determine the observed rate (initial velocity). Low signal controls containing 100 μM adenosine 5′-(α,β-methylene) diphosphate and high signal controls containing no compound were measured for each plate.
# IC50 values were calculated using Dotmatics template equation for 4-parameter fit. Results are expressed as % inhibition using the following equation: […]
Compound,IC50 [1] [nM],IC50 (Human CD73) [nM]
"N#Cc1c(Cl)nc2c(ncn2[C@@H]2O[C@H](COCP(=O)(O)O)[C@@H](O)[C@H]2O)c1NC1CCCC1 [Compound 55, ((((2R,3S,4R,5R)-5-(5-chloro-6-cyano-7-(cyclopentylamino)-3H-imidazo[4,5-b]pyridin-3-yl)-3,4-dihydroxytetrahydrofuran-2-yl)methoxy)methyl)phosphonic acid]",< 10,< 10
Cc1nc2c(ccn2[C@@H]2O[C@H](COCP(=O)(O)O)[C@@H](O)[C@H]2O)c(NC2CCCC2)c1C#N [Compound 44],< 10,< 10
N#Cc1c(Cl)nc2c(ncn2[C@@H]2O[C@H](CS(=O)(=O)CP(=O)(O)O)[C@@H](O)[C@H]2O)c1N[C@H]1C[C@H](F)C1 [Compound 136],< 10,10 to 100
"C[C@@H](Nc1c(C#N)c(Cl)nc2c1ccn2[C@@H]1O[C@H](CS(=O)(=O)CP(=O)(O)O)[C@@H](O)[C@H]1O)c1ccc(F)cc1 [Compound 27, (((((2S,3S,4R,5R)-5-(6-chloro-5-cyano-4-(((R)-1-(4-fluorophenyl)ethyl)amino)-1H-pyrrolo[2,3-b]pyridin-1-yl)-3,4-dihydroxytetrahydrofuran-2-yl)methyl)sulfonyl)methyl)phosphonic acid]",< 10,< 10
"N#Cc1c(Cl)nc2c(ncn2[C@@H]2O[C@H](COCP(=O)(O)O)[C@@H](O)[C@H]2O)c1N1CCC(F)(F)C1 [Compound 94, ((((2R,3S,4R,5R)-5-(5-chloro-6-cyano-7-(3,3-difluoropyrrolidin-1-yl)-3H-imidazo[4,5-b]pyridin-3-yl)-3,4-dihydroxytetrahydrofuran-2-yl)methoxy)methyl)phosphonic acid]",< 10,< 10
"C[C@@H](Nc1c(C#N)c(Cl)nc2c1ccn2[C@@H]1O[C@H](COP(=O)(O)CP(=O)(O)O)[C@@H](O)[C@H]1O)c1ccc(F)cn1 [Compound 222, (((((2R,3S,4R,5R)-5-(6-chloro-5-cyano-4-(((R)-1-(5-fluoropyridin-2-yl)ethyl)amino)-1H-pyrrolo[2,3-b]pyridin-1-yl)-3,4-dihydroxytetrahydrofuran-2-yl)methoxy)(hydroxy)phosphoryl)methyl)phosphonic acid]",< 10,< 10
C[C@@H](Nc1c(C#N)c(Cl)nc2c1ccn2[C@@H]1O[C@H](COP(=O)(O)CP(=O)(O)O)[C@@H](O)[C@@H]1F)c1ccc(F)cc1 [Compound 229],< 10,< 10
N#Cc1c(Cl)nc2c(ncn2[C@@H]2O[C@H](COCP(=O)(O)O)[C@@H](O)[C@H]2O)c1N1CC2CC2C1 (stereo partly drawn) [Compound 58],< 10,< 10
NC(=O)c1c(Cl)nc2c(ccn2C2O[C@H](COCP(=O)(O)O)[C@@H](O)[C@H]2O)c1NC1CCCC1 (stereo partly drawn) [Compound 39],10 to 100,< 10
N#Cc1c(Cl)nc2c(ccn2[C@@H]2O[C@H](COCP(=O)(O)O)[C@@H](O)[C@H]2O)c1N1CC[C@H](F)C1 [Compound 60],< 10,< 10
N#Cc1c(Cl)nc2c(c(F)cn2[C@@H]2O[C@H](COCP(=O)(O)O)[C@@H](O)[C@H]2O)c1NC1CC(F)(F)C1 [Compound 160],< 10,< 10
N#Cc1nc2c(ccn2[C@@H]2O[C@H](COCP(=O)(O)O)[C@@H](O)[C@H]2O)c(N2C[C@@H](F)[C@@H](F)C2)c1Cl [Compound 103],< 10,< 10
C[C@H](Nc1c(C#N)c(Cl)nc2c1cnn2[C@@H]1O[C@H](COP(=O)(O)CP(=O)(O)O)[C@@H](O)[C@H]1O)c1ccc(C#N)cc1 [Compound 243],< 10,< 10
N#Cc1c(Cl)nc2c(ccn2[C@@H]2O[C@H](COCP(=O)(O)O)[C@@H](O)[C@H]2O)c1NC1CC(F)(F)C1 [Compound 10],< 10,< 10
N#Cc1c(Cl)nc2c(ccn2[C@@H]2O[C@H](CS(=O)(=O)CP(=O)(O)O)[C@@H](O)[C@@H]2F)c1N1CCC(F)(F)C1 [Compound 171],< 10,< 10
"C[C@@H](Nc1c(C#N)c(Cl)nc2c1ncn2[C@@H]1O[C@H](COP(=O)(O)CP(=O)(O)O)[C@@H](O)[C@H]1O)c1ccccc1F [Compound 208, (((((2R,3S,4R,5R)-5-(5-chloro-6-cyano-7-(((R)-1-(2-fluorophenyl)ethyl)amino)-3H-imidazo[4,5-b]pyridin-3-yl)-3,4-dihydroxytetrahydrofuran-2-yl)methoxy)(hydroxy)phosphoryl)methyl)phosphonic acid]",< 10,< 10
N#Cc1nc2c(ccn2[C@@H]2O[C@H](COCP(=O)(O)O)[C@@H](O)[C@H]2O)c(N2C[C@@H](F)[C@@H](F)C2)c1C#N [Compound 106],< 10,< 10

Compound,IC50 [1] [nM],IC50 (Human CD73) [nM]
N#Cc1nc2c(ccn2[C@@H]2O[C@H](CS(=O)(=O)CP(=O)(O)O)[C@@H](O)[C@H]2O)c(NC2CC(F)(F)C2)c1C#N [Compound 177],< 10,< 10
N#Cc1c(Cl)nc2c(ccn2[C@@H]2O[C@H](COP(=O)(O)CP(=O)(O)O)[C@@H](O)[C@@H]2F)c1N1CCC(F)(F)C1 [Compound 96],< 10,< 10
Cc1nc2c(ccn2[C@@H]2O[C@H](COP(=O)(O)CP(=O)(O)O)[C@@H](O)[C@H]2O)c(NC2CCCC2)c1C#N [Compound 49],< 10,< 10
C[C@@H](Nc1c(C#N)c(Cl)nc2c1ccn2[C@@H]1O[C@H](CS(=O)(=O)CP(=O)(O)O)[C@@H](O)[C@H]1O)c1ccc(C#N)cc1 [Compound 178],< 10,< 10
N#Cc1c(Cl)nc2c(ccn2[C@@H]2O[C@H](COCP(=O)(O)O)[C@@H](O)[C@H]2O)c1N1C[C@@H](F)[C@H](F)C1 [Compound 68],< 10,< 10
C[C@H](Nc1c(C#N)c(Cl)nc2c1ccn2[C@@H]1O[C@H](COP(=O)(O)CP(=O)(O)O)[C@@H](O)[C@@H]1F)c1ccc(F)cc1 [Compound 241],< 10,< 10
N#Cc1c(Cl)nc2c(ccn2[C@@H]2O[C@H](COP(=O)(O)CP(=O)(O)O)[C@@H](O)[C@H]2O)c1NC1CC(F)(F)C1 [Compound 47],< 10,< 10
N#Cc1c(Cl)nc2c(c(F)cn2[C@@H]2O[C@H](CS(=O)(=O)CP(=O)(O)O)[C@@H](O)[C@H]2O)c1NC1CC(F)(F)C1 [Compound 162],< 10,< 10
N#Cc1nc2c(ccn2[C@@H]2O[C@H](CS(=O)(=O)CP(=O)(O)O)[C@@H](O)[C@H]2O)c(N2C[C@@H](F)[C@@H](F)C2)c1Cl [Compound 138],< 10,10 to 100
N#Cc1c(Cl)nc2c(c(F)cn2[C@@H]2O[C@H](CS(=O)(=O)CP(=O)(O)O)[C@@H](O)[C@H]2O)c1N1CCC(F)(F)C1 [Compound 152],> 100,< 10
N#Cc1c(Cl)nc2c(ncn2[C@@H]2O[C@H](COCP(=O)(O)O)[C@@H](O)[C@H]2O)c1N1C[C@@H](F)[C@H](F)C1 [Compound 93],< 10,< 10
C[C@H](Nc1c(C#N)c(Cl)nc2c1ncn2[C@@H]1O[C@H](COP(=O)(O)CP(=O)(O)O)[C@@H](O)[C@H]1O)c1ccccc1F [Compound 242],< 10,< 10
"N#Cc1c(Cl)nc2c(ccn2[C@@H]2O[C@H](COCP(=O)(O)O)[C@@H](O)[C@H]2O)c1NC1CCCC1 [Compound 1, ((((2R,3S,4R,5R)-5-(6-chloro-5-cyano-4-(cyclopentylamino)-1H-pyrrolo[2,3-b]pyridin-1-yl)-3,4-dihydroxytetrahydrofuran-2-yl)methoxy)methyl)phosphonic acid]",< 10,< 10
C[C@H](Nc1c(C#N)c(Cl)nc2c1ccn2[C@@H]1O[C@H](CS(=O)(=O)CP(=O)(O)O)[C@@H](O)[C@H]1O)c1ccc(C#N)cc1 [Compound 198],< 10,< 10
N#Cc1c(Cl)nc2c(ccn2[C@@H]2O[C@H](CS(=O)(=O)CP(=O)(O)O)[C@@H](O)[C@@H]2F)c1N [Compound 173],> 100,10 to 100
N#Cc1c(Cl)nc2c(cnn2[C@@H]2O[C@H](COP(=O)(O)CP(=O)(O)O)[C@@H](O)[C@H]2O)c1NC1CCCC1 [Compound 244],< 10,< 10
